Test results as given in ChEMBL document CHEMBL6074680, “Structure-Based Discovery of a Series of Covalent, Orally Bioavailable, and Selective BFL1 Inhibitors” (J Med Chem, 2024).
Activity calls are given as the source filed them. The rule behind the calls is not given here.

Tests used:
Cannabinoid receptor 1 = Cannabinoid receptor 1 (Homo sapiens, UniProt P21554); test: Inhibition of human CB1 receptor
KARPAS-422 [1] = test: Antiproliferative activity against BFL1 null human KARPAS-422 cells assessed as cell viability incubated for 24 hrs by celltiter-glo assay; format: functional, cell-based
[2] = target: Induced myeloid leukemia cell differentiation protein Mcl-1 (Homo sapiens, UniProt Q07820); test: Inhibition of MCL1 (unknown origin) by FRET assay
KARPAS-422 [3] = test: Antiproliferative activity against human KARPAS-422 cells assessed as cell survival at 10 uM incubated for 24 hrs by celltiter-glo assay; format: functional, cell-based
SU-DHL-1 [4] = test: Antiproliferative activity against human SU-DHL-1 cells assessed as cell viability incubated for 24 hrs by celltiter-glo assay; format: functional, cell-based; settings: SU-DHL-1, 24 h
OCI-Ly10 = test: Induction of apoptosis in human OCI-Ly10 cells assessed as caspase activation incubated for 6 hrs by caspaseGlo 3/7 reagent based assay; format: functional, cell-based
SU-DHL-1 [5] = test: Antiproliferative activity against human SU-DHL-1 cells assessed as cell survival upto 100 uM incubated for 24 hrs by celltiter-glo assay; format: functional, cell-based
Mus musculus [6] = test: Effect on BFL1 level in po dosed SCID mouse measured for 6 hrs by MSD assay; format: functional, organism-based; settings: dose 100-300 mg/kg
Mus musculus [7] = test: Effect on cleaved caspase 3 level in po dosed SCID mouse measured for 6 hrs by MSD assay; format: functional, organism-based; settings: dose 100-300 mg/kg
SU-DHL-1 [8] = test: Induction of apoptosis in human SU-DHL-1 cells assessed as caspase activation in presence of AZD5991 incubated for 6 hrs by caspaseGlo 3/7 reagent based assay; format: functional, cell-based; settings: SU-DHL-1, 6 h
[9] = Volume of distribution at steady state in CD-1 mouse at 1 mg/kg, po or 0.5 mg/kg, iv measured upto 24 hrs by LC-MS/MS analysis; format: ADME, organism-based; settings: in vivo
[10] = Lipophilicity, log D of compound in 1-octanol at pH 7.4 incubated for 4 hrs by HPLC-UV analysis; format: physicochemical; settings: 1-octanol / aqueous phase at pH 7.4, pH 7.4
[11] = Plasma protein binding in mouse assessed as unbound fraction; format: ADME, cell-free
[12] = Half life in CD-1 mouse at 1 mg/kg, po or 0.5 mg/kg, iv measured upto 24 hrs by LC-MS/MS analysis; format: ADME, organism-based; settings: in vivo
BCL2A1/BID = target: T1, BCL2A1/BID (Homo sapiens, UniProt Q16548); test: Inhibition of BFL-1/ BH3 (unknown origin) interaction incubated for 2 hrs by TR-FRET assay; format: protein assay
T1 sequence (Q16548 whole entry): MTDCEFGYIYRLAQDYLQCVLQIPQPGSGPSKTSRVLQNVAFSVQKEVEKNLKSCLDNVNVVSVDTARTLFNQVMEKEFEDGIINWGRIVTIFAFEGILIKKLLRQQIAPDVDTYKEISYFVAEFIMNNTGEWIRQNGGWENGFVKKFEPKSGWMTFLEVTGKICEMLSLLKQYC
T1 sequence (P55957 whole entry): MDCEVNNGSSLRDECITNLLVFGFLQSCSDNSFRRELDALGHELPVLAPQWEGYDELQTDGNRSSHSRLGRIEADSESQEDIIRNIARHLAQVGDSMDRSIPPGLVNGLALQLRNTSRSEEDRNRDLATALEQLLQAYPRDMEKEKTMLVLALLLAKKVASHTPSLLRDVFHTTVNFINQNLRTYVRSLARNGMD

[13] = Metabolic stability in human hepatocytes assessed as intrinsic clearance measured per 10^6 cells; format: ADME, cell-based, Hepatocyte; settings: read-out: CLH
Bcl-2-like protein 1 = Bcl-2-like protein 1 (Homo sapiens, UniProt Q07817); test: Inhibition of Bcl-Xl (unknown origin) by FRET assay
[14] = Apparent permeability across apical to basolateral side in human Caco-2 cells measured upto 120 mins by LC-MS/MS analysis; format: ADME, cell-based
[15] = Cmax in CD-1 mouse at 1 mg/kg, po or 0.5 mg/kg, iv measured upto 24 hrs by LC-MS/MS analysis; format: ADME, organism-based; settings: in vivo
[16] = target: Apoptosis regulator Bcl-2 (Homo sapiens, UniProt P10415); test: Inhibition of BCL2 (unknown origin) by FRET assay
[17] = Metabolic stability in rat hepatocytes assessed as intrinsic clearance measured per 10^6 cells; format: ADME, cell-based, Hepatocyte; settings: rat hepatocytes, read-out: CLH
[18] = AUC in CD-1 mouse at 1 mg/kg, po or 0.5 mg/kg, iv measured upto 24 hrs by LC-MS/MS analysis; format: ADME, organism-based; settings: in vivo
[19] = Oral bioavailability in CD-1 mouse at 1 mg/kg or 0.5 mg/kg measured upto 24 hrs by LC-MS/MS analysis; format: ADME, organism-based; settings: in vivo
[20] = Metabolic stability in mouse hepatocytes assessed as intrinsic clearance measured per 10^6 cells; format: ADME, cell-based, Hepatocyte; settings: read-out: CLH

Sequence of Bcl-2-like protein 1 (Q07817 whole entry): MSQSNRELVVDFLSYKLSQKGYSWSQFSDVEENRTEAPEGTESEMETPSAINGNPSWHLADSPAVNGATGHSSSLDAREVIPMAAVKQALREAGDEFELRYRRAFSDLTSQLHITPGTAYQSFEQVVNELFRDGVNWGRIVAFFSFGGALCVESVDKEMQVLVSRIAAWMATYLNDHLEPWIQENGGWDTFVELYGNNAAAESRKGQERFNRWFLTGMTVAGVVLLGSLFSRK
Sequence of Apoptosis regulator Bcl-2 (P10415 whole entry): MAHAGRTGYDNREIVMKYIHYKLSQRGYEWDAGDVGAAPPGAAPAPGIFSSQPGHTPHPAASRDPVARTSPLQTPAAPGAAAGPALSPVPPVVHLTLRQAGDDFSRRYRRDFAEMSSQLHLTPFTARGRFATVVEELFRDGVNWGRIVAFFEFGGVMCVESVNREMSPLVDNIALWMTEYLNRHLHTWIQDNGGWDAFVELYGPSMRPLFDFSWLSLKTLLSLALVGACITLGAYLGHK
Sequence of Induced myeloid leukemia cell differentiation protein Mcl-1 (Q07820 whole entry): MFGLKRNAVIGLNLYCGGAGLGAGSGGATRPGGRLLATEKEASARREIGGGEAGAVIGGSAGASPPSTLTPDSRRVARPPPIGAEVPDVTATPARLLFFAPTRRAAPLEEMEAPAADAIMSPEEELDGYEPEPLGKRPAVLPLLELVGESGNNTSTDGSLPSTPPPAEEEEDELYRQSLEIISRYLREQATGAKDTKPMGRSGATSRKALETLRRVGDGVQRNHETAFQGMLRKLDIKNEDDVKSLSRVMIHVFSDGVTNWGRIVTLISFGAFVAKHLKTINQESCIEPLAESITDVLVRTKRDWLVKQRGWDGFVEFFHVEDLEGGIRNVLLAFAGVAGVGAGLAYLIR
Sequence of Cannabinoid receptor 1 (P21554 whole entry): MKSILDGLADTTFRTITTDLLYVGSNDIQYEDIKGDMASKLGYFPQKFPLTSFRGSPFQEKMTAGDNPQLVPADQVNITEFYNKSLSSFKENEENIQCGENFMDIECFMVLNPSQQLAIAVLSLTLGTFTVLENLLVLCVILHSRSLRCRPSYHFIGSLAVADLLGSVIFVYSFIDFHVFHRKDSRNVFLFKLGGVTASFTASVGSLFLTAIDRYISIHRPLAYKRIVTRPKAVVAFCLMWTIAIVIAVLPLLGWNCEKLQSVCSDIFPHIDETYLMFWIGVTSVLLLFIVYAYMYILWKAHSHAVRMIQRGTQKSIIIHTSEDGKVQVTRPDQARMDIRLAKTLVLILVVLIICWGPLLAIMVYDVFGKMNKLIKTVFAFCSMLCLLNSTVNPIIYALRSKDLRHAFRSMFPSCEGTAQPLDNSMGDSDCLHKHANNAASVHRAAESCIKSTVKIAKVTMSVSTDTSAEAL

Compound | EC50 (SU-DHL-1 [4]) [µM] | EC50 (SU-DHL-1 [8]) [µM] | Vdss [9] [L/kg] | logD at 4 h [10] | fraction unbound [11] | half-life [12] [h] | IC50 (BCL2A1/BID) [µM] | hepatocyte CLint [13] [µL/min/1e6 cells] | IC50 (Bcl-2-like protein 1) [µM] | Papp A→B at 2 h [14] [×10⁻⁶ cm/s] | Cmax [15] [nM] | IC50 [16] [µM] | hepatocyte CLint [17] [µL/min/1e6 cells] | AUC at 24 h [18] [µM·h] | bioavailability [19] [%] | hepatocyte CLint [20] [µL/min/1e6 cells] | further results
C=CC(=O)N(c1ccc(O[C@@H]2CC[C@@H](N)C2)c(F)c1)[C@@H](C)c1ccc(Cl)cc1 | 0.25 | 0.35 |  |  |  |  |  |  |  |  |  |  |  |  |  |  | IC50 (Cannabinoid receptor 1): > 100 µM; Activity (KARPAS-422 [1]): Active; IC50 [2]: > 100 µM; Activity (KARPAS-422 [3]): inactive; Activity (OCI-Ly10): Active; Activity (SU-DHL-1 [5]): Active; Activity (Mus musculus [6]): Dose-dependent-effect; Activity (Mus musculus [7]): Dose-dependent-effect
C=CC(=O)N(c1ccc(O[C@@H]2CC[C@@H](NC(=O)N[C@@H]3CCS(=O)(=O)C3)C2)c(Cl)c1)[C@@H](C)c1ccc(Cl)cc1 | 0.048 | 0.038 | 4.1 | 4.2 | 0.013 | 0.75 | 0.0054 | 11 | > 30 | 16 | 15 | > 30 | 55 | 0.036 | 16 | 42 | 
C=CC(=O)N(c1ccc(O[C@@H]2CC[C@@H](NC(=O)N[C@@H]3CCS(=O)(=O)C3)C2)c(F)c1)[C@@H](C)c1ccc(Cl)cc1 | 0.19 | 0.083 | 4 | 3.7 | 0.027 | 3.1 | 0.0085 | 7.4 | > 30 | < 11 | 53 | > 30 | 59 | 0.19 | 37 | 69 | 
